Assay results as given in patent US20150299188A1, “HETEROCYCLIC COMPOUND” (priority 2012, published 2015).

Tested on: FLAP (5-lipoxygenase activating protein)
Assay: In vitro binding test: displacement of [3H]-7-chloro-3-(5-((3-fluoropyridin-2-yl)methoxy)-2-methylphenyl)-3,4-dihydroquinazolin-2(1H)-one from Sf9 microsome fractions
Design: species or system human and mouse
Conditions: Sf9 microsome fractions expressing FLAP; 100% = radioligand binding with 10 μM sodium 3-(3-(tert-butylsulfanyl)-1-(4-chlorobenzyl)-5-isopropyl-1H-indol-2-yl)-2,2-dimethylpropanoate, 0% = DMSO; test compound concentration not given
Outline: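 Sf9 microsomes expressing human or mouse FLAP (2 μg/mL) preincubated with compound 10 min at room temperature, then 120 nM tritiated quinazolinone ligand added for 60 min; buffer 100 mM Tris-HCl pH 7.5 with NaCl, EDTA, DTT, glycerol, Tween20. Bound ligand filtered and counted by scintillation; 10 μM indole propanoate defines 100% inhibition, DMSO 0%.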

Row | Compound | inhibitory rate (%)
1 | O=c1[nH]c2ccccc2c(=O)n1-c1cccc(OCc2ncccc2F)c1 [Example 346, 3-(3-((3-fluoropyridin-2-yl)methoxy)phenyl)quinazoline-2,4(1H,3H)-dione] | 96%
2 | Cc1ccc(OCc2ncccc2F)cc1-n1c(=O)[nH]c2c(Cl)cccc2c1=O [Example 347, 8-chloro-3-(5-((3-fluoropyridin-2-yl)methoxy)-2-methylphenyl)quinazoline-2,4(1H,3H)-dione] | 110%
3 | Cc1ccc(OCc2ncccc2F)cc1-n1c(=O)[nH]c2cc(N)ccc2c1=O [Example 348, 7-amino-3-(5-((3-fluoropyridin-2-yl)methoxy)-2-methylphenyl)quinazoline-2,4(1H,3H)-dione] | 101%
4 | Cc1ccc(OCc2ncccc2F)cc1-n1c(=O)[nH]c2cc(OCC3CC3)ccc2c1=O [Example 349, 7-(cyclopropylmethoxy)-3-(5-((3-fluoropyridin-2-yl)methoxy)-2-methylphenyl)quinazoline-2,4(1H,3H)-dione] | 105%
5 | Cc1ccc(OCc2ncccc2F)cc1-n1c(=O)[nH]c2cc(NC(=O)C3CC3)ccc2c1=O [Example 350, N-(3-(5-((3-fluoropyridin-2-yl)methoxy)-2-methylphenyl)-2,4-dioxo-1,2,3,4-tetrahydroquinazolin-7-yl)cyclopropanecarboxamide] | 101%
6 | Cc1ccc(OCc2ncccc2F)cc1-n1c(=O)[nH]c2cc(Cl)ccc2c1=O [Example 351, 7-chloro-3-(5-((3-fluoropyridin-2-yl)methoxy)-2-methylphenyl)quinazoline-2,4(1H,3H)-dione] | 107%
7 | COCCOc1ccc2c(=O)n(-c3cc(OCc4ncccc4F)ccc3C)c(=O)n(CCOC)c2c1 [Example 352, 3-(5-((3-fluoropyridin-2-yl)methoxy)-2-methylphenyl)-7-(2-methoxyethoxy)-1-(2-methoxyethyl)quinazoline-2,4(1H,3H)-dione] | 107%
8 | Cc1ccc(OCc2ncccc2F)cc1-n1c(=O)[nH]c2c(OCC3CC3)cccc2c1=O [Example 353, 8-(cyclopropylmethoxy)-3-(5-((3-fluoropyridin-2-yl)methoxy)-2-methylphenyl)quinazoline-2,4(1H,3H)-dione] | 106%
9 | COCCOc1cccc2c(=O)n(-c3cc(OCc4ncccc4F)ccc3C)c(=O)[nH]c12 [Example 354, 3-(5-((3-fluoropyridin-2-yl)methoxy)-2-methylphenyl)-8-(2-methoxyethoxy)quinazoline-2,4(1H,3H)-dione] | 104%
10 | Cc1ccc(OCc2ncccc2F)cc1-n1c(=O)[nH]c2ccc(Cl)cc2c1=O [Example 355, 6-chloro-3-(5-((3-fluoropyridin-2-yl)methoxy)-2-methylphenyl)quinazoline-2,4(1H,3H)-dione] | 94%
11 | COCCOc1ccc2c(=O)n(-c3cc(OCc4ncccc4F)ccc3C)c(=O)[nH]c2c1 [Example 356, 3-(5-((3-fluoropyridin-2-yl)methoxy)-2-methylphenyl)-7-(2-methoxyethoxy)quinazoline-2,4(1H,3H)-dione] | 102%
12 | Cc1ccc(OCc2ncccc2F)cc1-n1c(=O)[nH]c2cc(C(F)(F)F)ccc2c1=O [Example 357, 3-(5-((3-fluoropyridin-2-yl)methoxy)-2-methylphenyl)-7-(trifluoromethyl)quinazoline-2,4(1H,3H)-dione] | 104%
13 | O=c1[nH]c2cn(CC3CC3)nc2c(=O)n1-c1cc(OCc2ncccc2F)ccc1Br [Example 358, 6-(2-bromo-5-((3-fluoropyridin-2-yl)methoxy)phenyl)-2-(cyclopropylmethyl)-2H-pyrazolo[4,3-d]pyrimidine-5,7(4H,6H)-dione] | 101%
14 | Cc1ccc(OCc2ncccc2F)cc1-n1c(=O)[nH]c2cccc(F)c2c1=O [Example 359, 5-fluoro-3-(5-((3-fluoropyridin-2-yl)methoxy)-2-methylphenyl)quinazoline-2,4(1H,3H)-dione] | 97%
